The text below walks through data of patent US12227520B2 (priority 2019, dated 2025).

Where two headings read alike, the source gives them in different places.

One data set relates to uninfected MT-4 cells. The data set is described as follows: Cytotoxicity assay in MT-4 cells. The data set is classed as cell-based, human. The note with it: uninfected MT-4 cells, 5 days incubation. In outline: (§1)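 Infected MT-4 cells (HIV-1 IIIB, fresh 1:250 dilution of concentrated stock) or mock-infected cells exposed to compounds for 5 days at 37 °C. Viability by CellTiter-Glo luminescence; 5 μM AZT positive control, no-drug negative control. Uninfected cells used for cytotoxicity, with 10 μM puromycin as base-level cytotoxicity control.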

The test system of another data set is pLai RLuc reporter virus. The data set is described as follows: microbe, parasite or virus in culture. The data set is classed as cell-based, HIV. The essentials:
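MT-4 cells pre-infected 2 h at 37 °C with pLai RLuc virus, then exposed to 1:3 serial dilutions of compound in RPMI/10% FBS with or without 50% human serum for 72 h at 37 °C. Renilla luminescence read-out; serum shift = EC50(HS/CCM)/EC50(CCM).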

In the next data set the test system is HIV-1 (IIIB). The data set is described as follows: Antiviral assay in MT-4 cells (HIV MT-4 antiviral assay). The note with it: HIV-1 (IIIB) in MT-4 cells, 5 days incubation; read-out: EC50. The data set is classed as cell-based. In outline:
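MT-4 cells infected with HIV-1 IIIB (1:250 diluted stock) and exposed to 1:3 serially diluted compound in RPMI with 10% FBS. Viability read by CellTiter-Glo luminescence after 5 days at 37° C; mock-infected cells and 5 μM AZT as controls.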

Data set [1] is described as follows: Cytotoxicity assay in MT-4 cells. The data set is classed as cell-based, human. Conditions: human, uninfected MT-4 cells, 5 days incubation; read-out: CC50. The essentials:
as §1

[2] abbreviates: read-out: Antiviral Serum Shift RLuc 50% HS, HS/CCM (RPMI media, 10% FBS, 50% HS, 1% P/S), 72-h incubation.
The mark [3] stands for this setting: read-out: Antiviral Serum Shift RLuc CCM, CCM (RPMI media, 10% FBS, 1% P/S), 72-h incubation.
Where [4] appears, read: CCM (RPMI media, 10% FBS, 1% P/S), 72-h incubation, read-out: Antiviral Serum Shift RLuc CCM.
[5] abbreviates: HS/CCM (RPMI media, 10% FBS, 50% HS, 1% P/S), 72-h incubation, read-out: Antiviral Serum Shift RLuc 50% HS.

The term CC50 denotes the concentration that lowers cell viability or growth by half. In the data set on uninfected MT-4 cells, `O=C(NCc1c(F)cc(F)cc1F)c1cn2c(c(O)c1=O)C(=O)N1CCCC(CF)C2C1` (single isomer, unassigned) [Example 194-3, 6-(fluoromethyl)-12-hydroxy-1,11-dioxo-N-(2,4,6-trifluorobenzyl)-1,4,5,6,7,11-hexahydro-3H-2,7-methanopyrido[1,2-a][1,4]diazonine-10-carboxamide] returned a CC50 of 11500 nM. Besides, the EC50 was found to be 139 nM in the data set with pLai RLuc reporter virus (setting [2]), 0.554 nM in the data set with pLai RLuc reporter virus (setting [3]) and 1.28 nM in the data set with HIV-1 (IIIB).
On to `O=C(NCc1c(F)cc(F)cc1F)c1cn2c(c(O)c1=O)C(=O)N1CCCC(CF)C2C1` (single isomer, unassigned) [Example 194-4, 6-(fluoromethyl)-12-hydroxy-1,11-dioxo-N-(2,4,6-trifluorobenzyl)-1,4,5,6,7,11-hexahydro-3H-2,7-methanopyrido[1,2-a][1,4]diazonine-10-carboxamide], for which, in the data set on uninfected MT-4 cells, the CC50 was 11300 nM. Besides, the results for the EC50 with pLai RLuc reporter virus (setting [2]), in the data set with pLai RLuc reporter virus (setting [3]) and in the data set on HIV-1 (IIIB) were 3.48 nM, 0.397 nM and 1.75 nM, respectively.
`CC1CCCN2CC1n1cc(C(=O)NCc3ccc(F)cc3F)c(=O)c(O)c1C2=O` (centres unmarked) [Example 17-2b, N-(2,4-difluorobenzyl)-12-hydroxy-6-methyl-1,11-dioxo-1,4,5,6,7,11-hexahydro-3H-2,7-methanopyrido[1,2-a][1,4]diazonine-10-carboxamide] registered a CC50 in the data set on uninfected MT-4 cells of 11000 nM. Moreover, the EC50 in the data set with pLai RLuc reporter virus (setting [2]) turned out to be 101 nM; in the data set with pLai RLuc reporter virus (setting [3]), 0.31 nM; with HIV-1 (IIIB) it was 1.2 nM.
Regarding `O=C(NCc1ccc(F)cc1F)c1cn2c(c(O)c1=O)C(=O)N1CCc3ccccc3[C@@H]2C1` [Example 64-1, (13R)—N-(2,4-difluorobenzyl)-4-hydroxy-3,5-dioxo-3,5,8,13-tetrahydro-7H-6,13-methanobenzo[g]pyrido[1,2-a][1,4]diazonine-2-carboxamide], in the data set on uninfected MT-4 cells, it took 12300 nM to reach half-maximal cytotoxicity (CC50). Also, the CC50 at 5 days in data set [1] worked out at 14800 nM. Moreover, the EC50 in the data set with pLai RLuc reporter virus (Human immunodeficiency virus 1, 72 h, read-out: Antiviral Serum Shift RLuc 50% HS, HS/CCM (RPMI media, 10% FBS, 50% HS, 1% P/S), 72-h incubation) came out at 3.31 nM; in the data set with pLai RLuc reporter virus (Human immunodeficiency virus 1, 72 h, read-out: Antiviral Serum Shift RLuc CCM, CCM (RPMI media, 10% FBS, 1% P/S), 72-h incubation), 0.319 nM.
On to `O=C(NCc1c(F)cc(F)cc1F)c1cn2c(c(O)c1=O)C(=O)N1C[C@@H]2CCC[C@@H]1CF` [Example 180, (3R,7S)-3-(fluoromethyl)-12-hydroxy-1,11-dioxo-N-(2,4,6-trifluorobenzyl)-1,4,5,6,7,11-hexahydro-3H-2,7-methanopyrido[1,2-a][1,4]diazonine-10-carboxamide], for which half-maximal cytotoxicity with uninfected MT-4 cells (CC50) was put at 10400 nM. The EC50 was 13.5 nM with pLai RLuc reporter virus (setting [2]), 0.32 nM in the data set with pLai RLuc reporter virus (setting [3]) and 1.21 nM in the data set with HIV-1 (IIIB).
For `O=C(NCc1ccc(F)cc1F)c1cn2c(c(O)c1=O)C(=O)N1C[C@@H]2CCC[C@@H]1CF` [Example 181, (3R,7S)—N-(2,4-difluorobenzyl)-3-(fluoromethyl)-12-hydroxy-1,11-dioxo-1,4,5,6,7,11-hexahydro-3H-2,7-methanopyrido[1,2-a][1,4]diazonine-10-carboxamide] the same measures were 9710 nM, 7.65 nM, 0.385 nM and 1.08 nM.
As to “(3S,7S)-5-fluoro-12-hydroxy-3-methyl-1,11-dioxo-N-(2,4,6-trifluorobenzyl)-1,4,7,11-tetrahydro-3H-2,7-methanopyrido[1,2-a][1,4]diazonine-10-carboxamide [Example 118-1]”, in the data set with uninfected MT-4 cells, the midpoint of cytotoxicity, the CC50, lay at 11500 nM. Besides, the values for the EC50 in the data set with pLai RLuc reporter virus (setting [4]), in the data set with pLai RLuc reporter virus (setting [5]) and in the data set with HIV-1 (IIIB) were 0.296 nM, 0.881 nM and 0.79 nM, respectively.
The corresponding values for “(3S,7S)-5-fluoro-12-hydroxy-3-methyl-1,11-dioxo-N-(2,4,6-trifluorobenzyl)-1,6,7,11-tetrahydro-3H-2,7-methanopyrido[1,2-a][1,4]diazonine-10-carboxamide [Example 118-2]” are 11600 nM, 0.249 nM, 0.507 nM and 1.17 nM.
